# Patent US20110281798A1, “Methods for Lowering Plasma Glucagon with Exendins and Exendin Agonist Analogs” (AMYLIN PHARMACEUTICALS, INC., priority 1999, published 2011)
# Key:
# diabetic db/db mice = test: Plasma glucose lowering in diabetic db/db mice, dose response; format: in vivo, mouse
# Sprague-Dawley rats = test: Insulinotropic action during intravenous glucose challenge in rats; format: in vivo, rat; conditions: 30 pmol/kg/min i.v.
Substance,Glucose-lowering ED50 (diabetic db/db mice; diabetic db/db mice) [µg],Increase of 60-min insulin AUC versus saline (Sprague-Dawley rats; n.s. versus saline) [%],Plasma glucose after glucose injection (Sprague-Dawley rats; saline 21.7) [mM],60-min glucose AUC (Sprague-Dawley rats; saline 987±39) [mM·min],glucose lowering activity compared with exendin 4 (diabetic db/db mice; model not stated at b253)
GLP-1 [7-36]NH2,20.6,20,23.7,1096 ± 68,
"Leu^14, Phe^25 1-28 exendin-4 (HGEGTFTSDLSKQLEEEAVRLAIEFLKN) [AC3177, a shortened analog of exendin 4]",,,,,nearly equipotent activity to exendin 4
